Test results: patent publication US8609587B2, “Synergistic herbicidal compositions containing propyzamide and aminopyralid” (Dow AgroSciences, LLC., priority 2010, dated 2013)

How the values were obtained:
Type in all cases: in vivo
[1] = tested on: Alopecurus myosuroides Huds. (blackgrass); assay: Field trial in winter oilseed rape, visual weed control, ALOMY; conditions: 93 to 200 Days after Application
Experimental: (§1) Field trials were conducted in winter oilseed rape crop using small plot research methodology. The oilseed rape crop was grown using normal cultural practices for the respective area of the trials, using varieties, fertilization and maintenance to ensure normal growth of the crop and the weeds. Plot size was 2 meters (m) wide by 10 m long with 4 replicates by treatment. All treatments were applied preemergence to early postemergence to the weeds using a compressed air backpack sprayer delivering 200 liters per hectare (L/ha) spray volume. Commercially available product of propyzamide/pronamide was mixed with a formulation of aminopyralid potassium at appropriately formulated product rates to achieve the desired rates based on a unit area of application (hectare) to achieve the desired rates as shown. Treatments consisted of propyzamide applied alone, as well as aminopyralid applied alone, and in combination, to measure herbicidal weed control and any synergistic interactions. Treatments were rated at different intervals from treatment to time of evaluation up to the following year when the crop starts to grow again in the spring. The weed efficacy was compared to the untreated control plants. Visual weed control was scored on a scale of 0 to 100 percent where 0 corresponds to no injury and 100 corresponds to complete kill. Colby's equation was used to determine the herbicidal effects expected from the mixtures (Colby, S. R. […] Calculation of the synergistic and antagonistic response of herbicide combinations.). The following equation was used to calculate the expected activity of mixtures containing two active ingredients, A and B: […] A=observed efficacy of active ingredient A at the same concentration as used in the mixture; B=observed efficacy of active ingredient B at the same concentration as used in the mixture.

[2] = tested on: Viola arvensis Murr. (field violet); assay: Field trial in winter oilseed rape, visual weed control, VIOAR; conditions: 112 to 188 Days after Application
Experimental: as §1

[3] = tested on: Papaver rhoeas L. (corn poppy); assay: Field trial in winter oilseed rape, visual weed control, PAPRH; conditions: for % Control PAPRH (1) Ob: France, 112 to 188 Days after Application; for % Control PAPRH (2) Ob: Great Britain
Experimental: as §1

[4] = tested on: Matricaria spp L. (chamomile species); assay: Field trial in winter oilseed rape, visual weed control, MATSS; conditions: 93 to 188 Days after Application
Experimental: (§2) Field trials were conducted in winter oilseed rape crop using small plot research methodology. The oilseed rape crop was grown using normal cultural practices for the respective area of the trials, using varieties, fertilization and maintenance to ensure normal growth of the crop and the weeds. Plot size was 2 meters (m) wide by 10 m long with 4 replicates by treatment. All treatments were applied preemergence to early postemergence to the weeds using a compressed air backpack sprayer delivering 200 liters per hectare (L/ha) spray volume. Commercially available product of propyzamide/pronamide was mixed with a formulation of aminopyralid potassium at appropriately formulated product rates to achieve the desired rates based on a unit area of application (hectare) to achieve the desired rates as shown. Treatments consisted of propyzamide applied alone, as well as aminopyralid applied alone, and in combination, to measure herbicidal weed control and any synergistic interactions. Treatments were rated at different intervals from treatment to time of evaluation up to the following year when the crop starts to grow again in the spring. The weed efficacy was compared to the untreated control plants. Visual weed control was scored on a scale of 0 to 100 percent where 0 corresponds to no injury and 100 corresponds to complete kill. […]

[5] = tested on: Matricaria recutita L. (wild chamomile); assay: Field trial in winter oilseed rape, visual weed control, MATCH; conditions: 112 to 188 Days after Application
Experimental: as §2

[6] = tested on: Poa annua L. (annual bluegrass); assay: Field trial in winter oilseed rape, visual weed control, POANN; conditions: Great Britain, 93 to 200 Days after Application
Experimental: as §1

[7] = tested on: Brassica napus L. ssp. Napus (winter oil seed rape); assay: Field trial, crop tolerance (crop injury) of winter oilseed rape, BRSNW; conditions: 167 Days after Application
Experimental: as §1

With `Nc1cc(Cl)nc(C(=O)O)c1Cl` [Aminopyralid, 4-amino-3,6-dichloro-2-pyridinecarboxylic acid] as the compound, how does the “% Control ALOMY Ob” value ([1]; aminopyralid 6 g ae/ha alone) read?
The value was 0%.

What about the “% Control ALOMY Ob” value ([1]; aminopyralid 8 g ae/ha alone) of the same compound?
Its value is 0%.

And the “% Control VIOAR Ob” value ([2]; aminopyralid 6 g ae/ha alone)?
The value was 0%.

And the “% Control VIOAR Ob” value ([2]; aminopyralid 8 g ae/ha alone)?
Its value is 0%.

What about the “% Control PAPRH (1) Ob” value ([3]; aminopyralid 6 g ae/ha alone) of the same compound?
Its value is 48%.

What about the “% Control PAPRH (1) Ob” value ([3]; aminopyralid 8 g ae/ha alone) of the same compound?
Its value is 68%.

What about the “% Control PAPRH (2) Ob” value ([3]; aminopyralid 6 g ae/ha alone, 93 to 188 Days after Application (Table 2)) of the same compound?
The value was 48%.

What about the “% Control PAPRH (2) Ob” value ([3]; aminopyralid 6 g ae/ha alone, 112 to 188 Days after Application (Table 1)) of the same compound?
Its value is 0%.

What about the “% Control PAPRH (2) Ob” value ([3]; aminopyralid 8 g ae/ha alone, 93 to 188 Days after Application (Table 2)) of the same compound?
Its value is 68%.

And the “% Control PAPRH (2) Ob” value ([3]; aminopyralid 8 g ae/ha alone, 112 to 188 Days after Application (Table 1))?
The value was 75%.

What about the “% Control MATSS Ob” value ([4]; aminopyralid 10 g ae/ha alone) of the same compound?
The value was 48%.

What about the “% Control MATCH Ob” value ([5]; aminopyralid 6 g ae/ha alone) of the same compound?
Its value is 80%.

What about the “% Control POANN (1) Ob” value ([6]; aminopyralid 6 g ae/ha alone) of the same compound?
Its value is 0%.

And the “% Control POANN (2) Ob” value ([6]; aminopyralid 6 g ae/ha alone)?
The value was 0%.

What about the “% Control POANN (1) Ob” value ([6]; aminopyralid 8 g ae/ha alone) of the same compound?
Its value is 0%.

And the “% Control POANN (2) Ob” value ([6]; aminopyralid 8 g ae/ha alone)?
The value was 0%.

What about the “% Crop Injury BRSNW Ob” value ([7]; aminopyralid 6 g ae/ha alone) of the same compound?
Its value is 23%.

And the “% Crop Injury BRSNW Ob” value ([7]; aminopyralid 8 g ae/ha alone)?
Its value is 22%.

What does the source list for `C#CC(C)(C)NC(=O)c1cc(Cl)cc(Cl)c1` [Propyzamide, 3,5-dichloro-N-(1,1-dimethylpropynyl)benzamide]?
% Control ALOMY Ob ([1]; propyzamide 750 g ai/ha alone): 75%; % Control VIOAR Ob ([2]; propyzamide 750 g ai/ha alone): 27%; % Control PAPRH (1) Ob ([3]; propyzamide 750 g ai/ha alone): 18%; % Control PAPRH (2) Ob ([3]; propyzamide 750 g ai/ha alone, 112 to 188 Days after Application (Table 1)): 0%; % Control PAPRH (2) Ob ([3]; propyzamide 840 g ai/ha alone, 93 to 188 Days after Application (Table 2)): 11%; % Control MATSS Ob ([4]; propyzamide 750 g ai/ha alone): 7%; % Control MATCH Ob ([5]; propyzamide 750 g ai/ha alone): 0%; % Control POANN (1) Ob ([6]; propyzamide 750 g ai/ha alone): 22%; % Control POANN (2) Ob ([6]; propyzamide 750 g ai/ha alone): 22%; % Control POANN (1) Ob ([6]; propyzamide 840 g ai/ha alone): 22%; % Crop Injury BRSNW Ob ([7]; propyzamide 750 g ai/ha alone): 0%; % Crop Injury BRSNW Ob ([7]; propyzamide 840 g ai/ha alone): 2%
